Results published in BindingDB's records for patent US12435087 (Cellarity, 2025).

The molecules below were run against T1, DCN1-like protein 1 (Homo sapiens, UniProt Q96GG9) (assay: TR-FRET Assay (24 hour)).
Experimental: (§1) The DCN1 protein was biotinylated (EZ sulfo-NHS-LC-biotin; Thermofisher) for labeling with streptavidin terbium (Tb) cryptate in the reaction. The probe was changed to a non-covalent DCN1 inhibitor labeled with carboxyfluorescein (FAM; Zhou et al., Nat Commun. 2017; 8: 1150. Doi: 10.1038/s41467-017-01243-7). Buffer conditions were modified to enhance protein stability by exchanging Tween20 for TritonX and increasing NaCl to 200 mM. The compounds were screened against 5 nM DCN1 and 20 nM FAM-probe or 0.31 nM DCN1 and 900 nM total probe (100 nM FAM-labeled plus 800 nM unlabeled). The TR-FRET ratio between Tb-DCN1 and the FAM-labeled probe was measured in a 384-well opti-plate (Perkin Elmer) using a plate reader (BMG) at 24 hrs after treatment with compound (final DMSO concentration of 0.1%).

T1 sequence (Q96GG9 whole entry): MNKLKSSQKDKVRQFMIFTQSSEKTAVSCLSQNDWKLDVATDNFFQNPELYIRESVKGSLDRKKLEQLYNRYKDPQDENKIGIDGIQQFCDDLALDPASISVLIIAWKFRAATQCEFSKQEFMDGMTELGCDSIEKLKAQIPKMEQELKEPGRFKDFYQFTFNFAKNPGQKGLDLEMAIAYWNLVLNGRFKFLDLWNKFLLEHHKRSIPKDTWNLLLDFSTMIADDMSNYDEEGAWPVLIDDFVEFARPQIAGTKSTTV

Row | SMILES | IC50 [µM]
1 | CCN1C(=O)[C@H](NC(=O)c2cccc(C(F)(F)F)c2)[C@@H](c2cccc(NC(=O)/C=C/CN(C)C)c2)c2c(C)nn(-c3ccccc3)c21 (racemic) [US12435087, Compound I-38] | < 0.2
2 | C=C(CN(C)C1COC1)C(=O)N(C)Cc1cccc([C@@H]2c3cnn(-c4ccccc4)c3N(CC)C(=O)[C@H]2NC(=O)c2ccn(C3CC3)n2)c1 [US12435087, Compound I-239] | < 0.2
3 | C=C(CN(C)C1COC1)C(=O)N(C)Cc1cccc([C@@H]2c3cnn(-c4ccccc4)c3N(CC)C(=O)[C@H]2NC(=O)c2nccc(C(F)(F)F)n2)c1 [US12435087, Compound I-254] | < 0.2
4 | C=C(CN1CC2CC(C1)O2)C(=O)N(C)Cc1cccc([C@@H]2c3cnn(-c4ccccc4)c3N(CC)C(=O)[C@H]2NC(=O)c2ccn(C3CC3)n2)c1 [US12435087, Compound I-258] | < 0.2

Each molecule was assayed against T1, DCN1-like protein 1 (assay: TR-FRET Assay (1 hour)).
Experimental: as §1, with “1 hour” for “24 hrs”

Row | SMILES | IC50 [µM]
5 | C=CS(=O)(=O)Nc1cccc([C@H]2c3c(C)nn(-c4ccccc4)c3N(CC)C(=O)[C@@H]2NC(=O)c2cccc(C(F)(F)F)c2)c1 (racemic) [US12435087, Compound I-5] | < 0.2
6 | C=C(CN1CCOCC1)C(=O)NCc1cccc([C@@H]2c3cnn(-c4ccccc4)c3N(CC)C(=O)[C@H]2NC(=O)c2ccn(C3CC3)n2)c1 [US12435087, Compound I-280] | < 0.2
7 | CCN1C(=O)[C@@H](NC(=O)c2nccc(C(F)(F)F)n2)[C@H](c2cccc(C(=O)N3C[C@H](F)C[C@H]3C#N)c2)c2cnn(-c3ccccc3)c21 [US12435087, Compound I-350] | 1 to 3
8 | C=C(CN(C)C1COC1)C(=O)NCc1cccc([C@@H]2c3cnn(-c4ccccc4)c3N(CC)C(=O)[C@H]2NC(=O)c2ccn(C(F)(F)F)n2)c1 [US12435087, Compound I-378] | < 0.2
